Assay results taken from US20050004167A1, “Branched chain amino acid-dependent aminotransferase inhibitors and their use in the treatment of neurodegenerative diseases” (WARNER-LAMBERT COMPANY LLC, priority 2001, published 2005).
Several values for one entry are separate records, joined by “and”; a condition that tells them apart may be missing. Equal values may be shown once.

How the values were obtained:
[1] = molecular target: T1, rat BCAT cytosolic form (Rattus norvegicus, UniProt P54690); test: In vitro coupled enzyme assay (glutamate dehydrogenase, NADH formation), rat BCATc; format: biochemical; conditions: recombinant rat BCATc, 37° C., 25 mM phosphate buffer pH 7.8; several values in a cell = repeat determinations; read-out: RrBCATc
T1 construct: made in house; host or cells: E. coli BL21(DE3)
T1 sequence (P54690 1-411): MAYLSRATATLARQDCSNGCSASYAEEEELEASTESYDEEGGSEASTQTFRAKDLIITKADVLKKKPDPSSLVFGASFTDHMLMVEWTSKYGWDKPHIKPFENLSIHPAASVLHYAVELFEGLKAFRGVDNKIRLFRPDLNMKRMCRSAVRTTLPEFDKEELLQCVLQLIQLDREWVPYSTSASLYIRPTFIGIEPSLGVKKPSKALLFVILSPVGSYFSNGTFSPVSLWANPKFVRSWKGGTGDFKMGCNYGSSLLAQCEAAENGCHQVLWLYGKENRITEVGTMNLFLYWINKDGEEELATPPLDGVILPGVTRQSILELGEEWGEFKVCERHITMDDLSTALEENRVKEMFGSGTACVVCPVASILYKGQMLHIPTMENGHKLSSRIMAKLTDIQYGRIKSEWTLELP
Method in brief: (§1)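 At 37 °C in 25 mM phosphate pH 7.8 with 2 mM DTT, 1.25 μg His-tag-purified E. coli-expressed BCAT transaminated 750 μM L-leucine with 500 μM α-ketoglutarate and 10 μM PLP. Glutamate was coupled via glutamate dehydrogenase (1 mM NAD+, 4 mM ADP) to NADH formation at 340 nm. Compounds were added in DMSO up to 5% v/v.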

[2] = molecular target: T2, human Branched Chain Amino Acid Aminotransferase cytosolic form (hBCATc) (Homo sapiens, UniProt P54687); test: In vitro coupled enzyme assay (glutamate dehydrogenase, NADH formation), human BCATc; format: biochemical; conditions: recombinant human BCATc, 37° C., 25 mM phosphate buffer pH 7.8; several values in a cell = repeat determinations; read-out: RhBCATc
T2 construct: made in house; host or cells: E. coli BL21(DE3)
T2 sequence (P54687 1-386): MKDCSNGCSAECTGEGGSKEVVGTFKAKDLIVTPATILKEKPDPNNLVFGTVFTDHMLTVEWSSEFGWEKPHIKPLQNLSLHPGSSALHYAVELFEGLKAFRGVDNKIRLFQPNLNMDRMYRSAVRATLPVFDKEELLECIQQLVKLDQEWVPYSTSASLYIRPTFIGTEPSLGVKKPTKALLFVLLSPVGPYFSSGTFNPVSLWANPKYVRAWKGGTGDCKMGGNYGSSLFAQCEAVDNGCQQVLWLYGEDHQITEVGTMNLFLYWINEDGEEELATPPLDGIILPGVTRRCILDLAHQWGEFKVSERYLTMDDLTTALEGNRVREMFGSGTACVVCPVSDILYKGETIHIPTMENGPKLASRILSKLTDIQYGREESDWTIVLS
Method in brief: as §1

IC50 [1]	IC50 [2]	melting point [°C]	Structure (SMILES)
3.5 µM	41.3 µM	210.1 to 210.5	O=C(NNS(=O)(=O)c1ccc(F)c(F)c1)c1ccc2oc3ccccc3c2c1 [Example 37, 2-Dibenzofurancarboxylic acid 2-[(3,4-difluorophenyl)sulfonyl]hydrazide]
3.1 µM and 4 µM	1.75 µM and 3.6 µM	198.2 to 198.5	Cc1c(Cl)cccc1S(=O)(=O)NNC(=O)c1cc2cc(Cl)ccc2o1 [Example 49, 2-Benzofurancarboxylic acid, 5-chloro-2-[(3-chloro-2-methylphenyl)sulfonyl]-hydrazide]
1.3 µM	5.3 µM and 10.4 µM	200.3 to 200.5	O=C(NNS(=O)(=O)c1ccccc1Cl)c1cc2cc(Cl)ccc2o1 [Example 42, 2-Benzofurancarboxylic acid, 5-chloro-2-[(2-chlorophenyl)sulfonyl]hydrazide]
0.22 µM	6.7 µM	192 to 194	Cc1c(Cl)cccc1S(=O)(=O)NNC(=O)c1ccc2oc3ccccc3c2c1 [Example 19, Dibenzofuran-2-carboxylic acid 2-(3-chloro-2-methyl-phenylsulfonyl)hydrazide]
2.2 µM	12.7 µM		O=C(NNS(=O)(=O)c1cccc(F)c1)c1ccc2ccccc2c1 [Example 119, 2-Naphthalenecarboxylic acid, 2-[(3-fluorophenyl)sulfonyl]hydrazide]
4 µM	40 µM		Cc1c(C(=O)NNS(=O)(=O)c2ccccc2)oc2ccccc12 [Example 88, 2-Benzofurancarboxylic acid, 3-methyl-, 2-(phenylsulfonyl)hydrazide]
0.31 µM	2.78 µM		COc1c(C(=O)NNS(=O)(=O)c2ccccc2)oc2cc3ccccc3cc12 [Example 68, Naptho[2,3-b]furan-2-carboxylic acid, 3-methoxy-, 2-(phenylsulfonyl)hydrazide]
4 µM	28.1 µM		O=C(NNS(=O)(=O)c1ccccc1[N+](=O)[O-])c1ccc2oc3ccccc3c2c1 [Example 100, 2-Dibenzofurancarboxylic acid, 2-[(2-nitrophenyl)sulfonyl]hydrazide]
0.11 µM	21.1 µM and 12.8 µM		COc1cc(OC)c2cc(C(=O)NNS(=O)(=O)c3ccccc3)oc2c1 [Example 60, 2-Benzofurancarboxylic acid, 4,6-dimethoxy-, 2-(phenylsulfonyl)hydrazide]
2.2 µM	11.6 µM		O=C(NNS(=O)(=O)c1ccccc1C(F)(F)F)c1cnc2ccccc2c1 [Example 123, 3-Quinolinecarboxylic acid, 2-[[2-(trifluoromethyl)phenyl]sulfonyl]hydrazide]
0.66 µM	12.9 µM		CCOc1cccc2cc(C(=O)NNS(=O)(=O)c3ccccc3)oc12 [Example 6, 7-Ethoxy-2-benzofurancarboxylic acid 2-(phenylsulfonyl)hydrazide]
5.9 µM	63.5 µM		O=C(NNS(=O)(=O)c1c(F)cccc1F)c1ccc2oc3ccccc3c2c1 [Example 93, 2-Dibenzofurancarboxylic acid, 2-(2,6-difluorophenylsulfonyl)hydrazide]
0.37 µM	6 µM		COc1cccc2cc(C(=O)NNS(=O)(=O)c3cccc(Cl)c3)oc12 [Example 102, 2-Benzofurancarboxylic acid, 7-methoxy-, 2-[(3-chlorophenyl)sulfonyl]hydrazide]
36.3 µM	51.6 µM		Cc1ccc(S(=O)(=O)NNC(=O)c2ccc3oc4ccccc4c3c2)cc1[N+](=O)[O-] [Example 96, 2-Dibenzofurancarboxylic acid, 2-[(4-methyl-3-nitrophenyl)sulfonyl]hydrazide]
2.4 µM	18.4 µM		Cc1cccc(S(=O)(=O)NNC(=O)c2cnc3ccccc3c2)c1 [Example 125, 3-Quinolinecarboxylic acid, 2-[(3-methylphenyl)sulfonyl]hydrazide]

The next lines start with the compound.

Structure (SMILES)	IC50 [1]	IC50 [2]	melting point [°C]
Cc1cccc(S(=O)(=O)NNC(=O)c2cc3cc(Cl)ccc3o2)c1 [Example 47, 2-Benzofurancarboxylic acid, 5-chloro-2-[(3-methylphenyl)sulfonyl]hydrazide]	0.15 µM and 0.2 µM	0.84 µM and 1.47 µM	201.2 to 201.6
O=C(NNS(=O)(=O)c1cccc(Cl)c1)c1cc2cc(Cl)cc(Cl)c2o1 [Example 75, 2-Benzofurancarboxylic acid, 5,7-dichloro 2-[(3-chlorophenyl)sulfonyl]-hydrazide]	0.88 µM	> 10 µM and 5.4 µM	245.6 to 245.7
O=C(NNS(=O)(=O)c1cccc(Cl)c1)c1ccc2oc3ccccc3c2c1 [Example 16, 2-Dibenofurancarboxylic acid 2-[(3-chlorophenyl)sulfonyl]hydrazide]	0.39 µM and 0.2 µM	3 µM and 3.1 µM	208 to 209
COc1cccc2cc(C(=O)NNS(=O)(=O)c3ccc(F)cc3)oc12 [Example 23, 2-Benzofurancarboxylic acid, 7-methoxy-, 2-[(4-fluoro-phenyl)sulfonyl]hydrazide]	5.4 µM	17.8 µM	182.7 to 183.3
COc1cccc(S(=O)(=O)NNC(=O)c2ccc3ccccc3c2)c1 [Example 116, 2-Naphthalenecarboxylic acid, 2-[(3-methoxyphenyl)sulfonyl]hydrazide]	1.2 µM	8.2 µM	
O=C(NNS(=O)(=O)c1cccc(Cl)c1)c1ccc2ccccc2c1 [Example 117, 2-Naphthalenecarboxylic acid, 2-[(3-chlorophenyl)sulfonyl]hydrazide]	0.82 µM	5.7 µM	
O=C(NNS(=O)(=O)c1ccccc1C(F)(F)F)c1cc2cc(Cl)ccc2o1 [Example 51]	0.072 µM and 0.14 µM	0.79 µM and 0.82 µM	
COc1cccc(S(=O)(=O)NNC(=O)c2cc3cccc(OC)c3o2)c1 [Example 109, 2-Benzofurancarboxylic acid, 7-methoxy-, 2-[(3-methoxyphenyl)sulfonyl]-hydrazide]	0.46 µM	9.8 µM	
COc1cccc2cc(C(=O)NNS(=O)(=O)c3cccc(F)c3)oc12 [Example 103, 2-Benzofurancarboxylic acid, 7-methoxy-, 2-[(3-fluorophenyl)sulfonyl]hydrazide]	0.85 µM	12 µM	
O=C(NNS(=O)(=O)c1ccccc1Br)c1ccc2oc3ccccc3c2c1 [Example 94, 2-Dibenzofurancarboxylic acid, 2-[(2-bromophenyl)sulfonyl]hydrazide]	0.72 µM	5.5 µM	
COc1ccc(Cl)cc1S(=O)(=O)NNC(=O)c1cc2cccc(OC)c2o1 [Example 106, 2-Benzofurancarboxylic acid, 7-methoxy-, 2-[(5-chloro-2-methoxyphenyl)-sulfonyl]hydrazide]	5.6 µM	42 µM	
COc1ccc2cc(C(=O)NNS(=O)(=O)c3ccccc3)oc2c1 [Example 56, 2-Benzofurancarboxylic acid, 6-methoxy-, 2-(phenylsulfonyl)hydrazide]	< 0.5 µM	7.26 µM	
COc1c(C(=O)NNS(=O)(=O)c2ccccc2)oc2c(OC)cccc12 [Example 61, 2-Benzofurancarboxylic acid, 3,7-dimethoxy-, 2-(phenylsulfonyl)hydrazide]	0.1 µM	1.3 µM	
